{"source": "paper PMC6506387", "about": "(Structure (London, England : 1993), 2019)", "key": {"wt PKAcα [1]": {"biological_target": "T1, wt PKAcα (Homo sapiens, UniProt P17612)", "details": "1 mM ATP, 10 mM MgCl2, 20 mM MOPS pH 7.0, 150 mM NaCl, 0.5 °C/min"}, "wt PKAcα [2]": {"biological_target": "T1, wt PKAcα", "details": "20 mM MOPS pH 7.0, 150 mM NaCl; ATP 0-0.75 mM"}}}
{"smiles": "Nc1ncnc2c1ncn2[C@@H]1O[C@H](COP(=O)(O)OP(=O)(O)OP(=O)(O)O)[C@@H](O)[C@H]1O", "note": "[ATP]", "values": [{"measurement": "thermal shift", "setting": "wt PKAcα [1]", "value": "stabilities of apo PKAcα or J-PKAcα subunits and its ATP and/or peptide binding forms"}, {"measurement": "dissociation constant", "setting": "wt PKAcα [2]", "value": "ATP dissociation constants were determined using the ThermoFluor assay."}]}
